Laboratory results as given in patent US20050260126A1 (priority 2002, published 2005).
Where a name gives a salt, the structure may show the parent alone.

Tests used:
[1] = test system: abnormal prion proteins in ScN2a cells with persistent infection of scrapie; assay: cells; type: cell-based, mouse; conditions: for IC50: Mus musculus, ScN2a, 96 h, read-out: Inhibitory effects on producing abnormal prion protein IC50; for Inhibitory effects on producing abnormal prion proteins (in words): ScN2a cells
[2] = Slc:ICR, mouse, not told, iv
[3] = test system: ScN2a cells; conditions: for Concentration of inhibiting cell proliferation TC: mouse
[4] = in vivo; conditions: male, Crj:CD1, mouse, iv

Row | SMILES | IC50 [1] [nM] | Permeability into the brain: content in Brain [2] | Permeability into the brain: content in Plasma [2] | Concentration of inhibiting cell proliferation TC [3] [µM] | MTD [4] [mg/kg] | Inhibitory effects on producing abnormal prion proteins (in words) [1] | TC and safety concentration margin (in words) [3]
1 | CN(C)c1ncc(/C=C/c2nc3ccccc3o2)s1 [BF-197, 2-[2-(2-dimethyl-aminothiazol-5-yl)-ethenyl]benzoxazole] | 16 | 15 % ID/g or ml | 1.9 % ID/g or ml | 10 | ≥ 10 |  | 
2 | Clc1ccc(/C=C/c2nc3ccccc3o2)cc1 [BF-191, 2-[2-(4-chlorophenyl)ethenyl]benzoxazole] | 4 | 12.0 % ID/g or ml | 2.1 % ID/g or ml | >10 |  |  | 
3 | CN(C)c1ncc(/C=C/c2ccc3ccccc3n2)s1 [BF-222, 2-[2-(2-dimethylthiazol-5-yl)ethenyl]quinoline] | 8 | 13.0 % ID/g or ml | 2.0 % ID/g or ml | >10 | ≥ 10 |  | 
4 | Nc1ccc(/C=C/c2nc3cc(I)ccc3o2)cc1 [BF-173, 2-(4-amino)styryl-5-iodobenzoxazole] | 100 |  |  | 100 | ≥ 10 |  | 
5 | CNc1ccc(/C=C/C=C/c2nc3ccccc3o2)cc1 [BF-185, 2-[[4-(4-methylamino)-phenyl]-1,3-butadienyl]-benzoxazole] |  | 3.9 % ID/g or ml | 1.0 % ID/g or ml |  | ≥ 10 |  | 
6 | Cc1nc(/C=C/C=C/c2ccc(N(C)C)cc2)oc1C [BF-228, 2-[[4-(4-dimethylamino)-phenyl]-1,3-butadienyl]-3,4-dimethyloazole] | 16 |  |  | >10 | ≥ 10 |  | 
7 | CN(C)c1ccc2cc(-c3nc4cc(F)ccc4[nH]3)ccc2c1 [BF-153, 5-fluoro-2-(6-dimethyl-aminonaphthalen-2-yl)benzimidazole] | 1 |  |  | 10 | 3 to 10 | highly inhibitory effects | 
8 | Nc1ccc(-c2ccc3ccccc3n2)cc1 [BF-170, 2-[(4-amino)phenyl]-quinoline] | 100 | 9.1 % ID/g or ml | 1.4 % ID/g or ml | 100 |  |  | 
9 | Clc1ccc(/C=C/c2nc3ccccc3[nH]2)cc1 [Compound N-457, 2-[2-(4-chlorophenyl)ethenyl]benzimidazole] | 1 | 7.1 % ID/g or ml | 2.8 % ID/g or ml | 100 | ≥ 10 | highly inhibitory effects | higher TCs, therefore higher safety concentration margins
10 | CN(C)c1ccc(/C=C/c2nc3ccccc3o2)c(O)c1 [BF-206, 2-(4-dimethylamino-2-hydroxystyryl)-benzoxazole] | 2 |  |  | >10 | ≥ 10 |  | 
11 | CC1=NN(c2ccc(/C=C/c3nc4ccccc4o3)cc2)C(=O)C1 [BF-181, 2-[2-[4-(3-methyl-5-oxo-2-pyrrozolin-1-yl)-phenyl]ethenyl]benzoxazole] |  |  |  |  | 3 to 10 |  | 
12 | CN(C)c1ncc(/C=C/c2nc3ccccc3s2)s1 [BF-196, 2-[2-(2-dimethylamino-thiazol-5-yl)ethenyl]-benzothiazole] | 16 | 19 % ID/g or ml | 1.8 % ID/g or ml | >10 |  |  | 
13 | CNc1ccc(/C=C/C=C/c2nc3ccccc3[nH]2)cc1 [BF-188, 2-[[4-(4-methylamino)-phenyl]-1,3-butadienyl]-benzimidazole] |  | 4.8 % ID/g or ml | 1.7 % ID/g or ml |  | ≥ 10 |  | 
14 | CNc1ccc(C=Cc2ccc3ccccc3n2)c(O)c1 [BF-198, 2-[2-(2-hydroxyl-4-methylaminophenyl)-ethenyl]quinoline] | 0.8 | 9.9 % ID/g or ml | 4.7 % ID/g or ml | 10 | ≥ 10 |  | 
15 | CN(C)c1cnc(/C=C/c2nc3ccccc3o2)o1 [BF-215, 2-[2-(5-dimethylamino-oxazol-2-yl)-ethenyl]-benzoxazole] |  | 8.8 % ID/g or ml | 2.5 % ID/g or ml |  | ≥ 10 |  | 
16 | CN(C)c1ccc(-c2cn3cc(I)ccc3n2)cc1 [BF-130, 2-(4-dimethylamino) phenyl-6-iodoimidazo-[1,2-a]pyridine] | 1 | 7.3 % ID/g or ml | 2.4 % ID/g or ml | 100 |  | highly inhibitory effects | higher TCs, therefore higher safety concentration margins
17 | CNc1ccc(-c2ccc3ccccc3n2)cc1 [BF-158, 2-[(4-methylamino)-phenyl]quinoline] | 10 | 9.7 % ID/g or ml | 1.8 % ID/g or ml | 100 |  |  | 
18 | c1ccc2cc(-c3cn4ccccc4n3)ccc2c1 [Compound N-437, 2-(2-naphthyl)imidazo-[1,2-a]pyridine hydrobromide] | 1 |  |  | 100 | ≥ 10 |  | 

Row | SMILES | IC50 [1] [nM] | Permeability into the brain: content in Brain [2] | Permeability into the brain: content in Plasma [2] | Concentration of inhibiting cell proliferation TC [3] [µM] | MTD [4] [mg/kg] | Inhibitory effects on producing abnormal prion proteins (in words) [1] | TC and safety concentration margin (in words) [3]
19 | Nc1ccc(/C=C/c2nc3cc(F)ccc3o2)cc1 [BF-140, 2-(4-amino)styryl-5-fluorobenzoxazole] | 5 | 5.5 % ID/g or ml | 1.1 % ID/g or ml | 50 | ≥ 10 |  | 
20 | Cc1nc(/C=C/c2cnc(N(C)C)s2)oc1C [BF-214, 2-(dimethylamino)-5-[2-(4,5-dimethyloxazol-2-yl)ethenyl]thiazole] |  | 9.0 % ID/g or ml | 2.1 % ID/g or ml |  | ≥ 10 |  | 
21 | CNc1ccc(/C=C/c2ccc3ccccc3n2)cc1 [BF-178, 2-[2-(4-methylaminophenyl)ethenyl]quinoline] | 1000 | 6.3 % ID/g or ml | 4.5 % ID/g or ml | 100 | ≥ 10 |  | 
22 | CN(C)c1ccc(-c2nc3ccccc3s2)cc1 [BF-150, 2-(4-dimethylamino-phenyl) benzothiazole] | 1 | 11.2 % ID/g or ml | 1.5 % ID/g or ml | 10 |  | highly inhibitory effects | 
23 | CNc1ccc(/C=C/c2nc3cc(I)ccc3o2)cc1 [BF-180, 2-(4-methylamino)-styryl-5-iodobenzoxazole] | 10 | 2.4 % ID/g or ml | 1.2 % ID/g or ml | 100 | ≥ 10 |  | 
24 | CNc1ccc(/C=C/C=C/C=C/c2ccc3ccccc3n2)cc1 [BF-189, 1-(4-methylamino-phenyl)-6-(2-quinolyl)-1,3,5-hexatriene] | 100 |  |  | 100 | ≥ 10 |  | 
25 | CN(C)c1ncc(-c2nc3ccccc3o2)s1 [BF-225, 2-(2-dimethylamino-thiazol-5-yl)benzoxazole] |  |  |  |  | ≥ 10 |  | 
26 | CN(C)c1ccc(/C=C/c2cccs2)cc1 [BF-141, 2-[2-(4-dimethylamino-phenyl)ethenyl]thiophene] | 1 |  |  | 10 | 3 to 10 | highly inhibitory effects | 
27 | Nc1ccc(/C=C/c2ccc3ccccc3n2)cc1 [BF-177, 2-[2-(4-aminophenyl)ethenyl]quinoline] |  | 8.2 % ID/g or ml | 1.6 % ID/g or ml |  | ≥ 10 |  | 
28 | CN(C)c1ncc(/C=C/c2nc3ccccc3o2)o1 [BF-230, 2-[2-(2-dimethylamino-oxazol-5yl)-ethenyl]benzoxazole] |  |  |  |  | ≥ 10 |  | 
29 | Cc1nc(/C=C/c2ccc(N(C)C)cc2O)oc1CO [BF-200, 2-[2-[(4-dimethylamino-2-hydroxy)phenyl]-ethenyl]-5-hydroxy methyl-4-methyloxazole] |  |  |  |  | ≥ 10 |  | 
30 | CNc1ccc(C=Cc2ccc3cc(I)ccc3n2)c(O)c1 [BF-199, 2-[2-(2-hydroxyl-4-methylaminophenyl)-ethenyl]-6-iodoquinoline] | 0.8 |  |  | >10 | ≥ 10 |  | 
31 | CNc1ccc(/C=C/c2nc3ccccc3o2)c(N)c1 [BF-207, 2-(2-amino-4-N-methyl-aminostyryl)benzoxazole] |  |  |  |  | ≥ 10 |  | 
32 | CN(C)c1ncc(/C=C/C=C/c2nc3ccccc3[nH]2)s1 [BF-231, 2-[4-(2-dimethylamino-thiazol-5-yl)-1,3-butadienyl]benzimidazole] | 1.6 |  |  | >10 | ≥ 10 |  | 
33 | Nc1ccc(-c2ccc3cc(CF)ccc3n2)c(O)c1 [BF-213, 2-[(4-amino-2-hydroxy)-phenyl]-6-(fluoro-methyl)quinoline] | 2 |  |  | 10 | ≥ 10 |  | 
34 | Cc1ccc2nc(-c3ccc(NC(=O)c4ccc(Cl)cc4Cl)cc3)sc2c1 [HT-040, 4-(6-methylbenzothiazol-2-yl)-N-(2,4-dichlorobenzoyl)aniline] | 10 |  |  | >10 |  |  | 
35 | Cc1nc(/C=C/c2ccc(N(C)C)cc2O)oc1COCCF [BF-210] |  |  |  |  | ≥ 10 |  | 
